# Patent publication US10100078B2, “Nanoparticles, process for preparation and use thereof as carrier for amphipatic and hydrophobic molecules in fields of medicine including cancer treatment and food related compounds” (priority 2011, dated 2018)
# What was measured:
# [1] = test system: PC-3 prostate cancer cells; assay: FMCA cancer cell killing effect on PC-3 prostate cancer cells; assay type: cell-based, human; settings: PC-3, 3 days
# Description: The human prostate adenocarcinoma, PC-3, cultured in a 50/50 mixture of HAM's F-12K and RPMI-1640. […] All media were supplemented with 10% heat-inactivated fetal calf serum (FCS), 2 mM glutamine, 100 μg/ml streptomycin and 100 IE/ml penicillin (all from Sigma Aldrich Co, St Louis, Mo., USA). All cell lines were incubated at 37° C. in humidified air containing 5% CO2.
# The FMCA method is based on measurement of fluorescence generated from hydrolysis of fluorescein diacetate (FDA) to fluorescein by cells with intact plasma membranes. After above mentioned incubation for 3 days, the medium was removed by aspiration. […] The plates were incubated for 45 minutes and the generated fluorescence from each well was measured in a 96-well scanning fluorometer. The fluorescence is proportional to the number of intact cells in the well. Quality criteria for a successful analysis included a fluorescence signal in the control wells of more than five times of the mean blank value, a mean co-efficient of variation (CV) in the control wells of less than 30%.
# The samples were 5-fold serially diluted in 6 steps starting from the concentration of 100 μg/ml, and incubated with PC-3 prostate cancer cells for 3 days. Then the cells were stained and read by the FMCA method.
# PC-3 cells were exposed for 3 days at pre-determined concentrations of G3 and docetaxel separately and in combination as shown on the graph. […]
# HL-60 AML cells = assay: FMCA cancer cell killing effect on HL-60 AML cells; assay type: cell-based, human; settings: HL-60, 3 days, pre-determined concentrations, alone or combined; FIG. 7
# Description: All media were supplemented with 10% heat-inactivated fetal calf serum (FCS), 2 mM glutamine, 100 μg/ml streptomycin and 100 IE/ml penicillin (all from Sigma Aldrich Co, St Louis, Mo., USA). All cell lines were incubated at 37° C. in humidified air containing 5% CO2.
# The FMCA method is based on measurement of fluorescence generated from hydrolysis of fluorescein diacetate (FDA) to fluorescein by cells with intact plasma membranes. After above mentioned incubation for 3 days, the medium was removed by aspiration. After one wash with PBS, 100 μl/well of FDA dissolved in a physiological buffer (10 μg/ml) was added. The plates were incubated for 45 minutes and the generated fluorescence from each well was measured in a 96-well scanning fluorometer. The fluorescence is proportional to the number of intact cells in the well. Quality criteria for a successful analysis included a fluorescence signal in the control wells of more than five times of the mean blank value, a mean co-efficient of variation (CV) in the control wells of less than 30%.
# The samples were 5-fold serial diluted in 6 steps starting from 100 μg/ml, and incubated or 3 days with HL-60 AML cells f. Then the cells were stained and read by the FMCA method.
# HL-60 AML cells were exposed for 3 days at pre-determined concentrations of G3 and cytarabine separately and in combination of these two as shown on FIG. 7. […]
# [2] = Detection of vitamin D3 in the water phase (DiaSorin Liaison); assay type: physicochemical; settings: 50% cholesterol and 50% vitamin D3 membrane, assay has about one percent cross-reactivity with vitamin D3
# Description: Samples with cholecalciferol (vitamin D3) incorporated in G3 particles were analysed at a University Hospital Laboratory on a Liaison automatic instrument. Although the assay (DiaSorin Liaison) is designed to measure 25-HO-D3 it has about one percent cross-reactivity with non-hydroxylated vitamin D3.
# G3 particles were formed using 50% cholesterol and 50% vitamin D3 to form the lipid membrane. Quil A was added into the water phase to generate the G3 particles (for details, please refer to Example 1). 100% Cholesterol and 100% Vitamin D3 in water were used as the controls. Samples with vitamin D3 incorporated in G3 particles were analysed at the Uppsala University Hospital Laboratory on a DiaSorin Liaison automatic instrument.
compound,measurement,setting,value
"CO[C@H]1C(=O)[C@]2(C)[C@@H](OC)C[C@H]3OC[C@@]3(OC(C)=O)[C@H]2[C@H](OC(=O)c2ccccc2)[C@]2(O)C[C@H](OC(=O)[C@H](O)[C@@H](NC(=O)OC(C)(C)C)c3ccccc3)C(C)=C1C2(C)C [Cabazitaxel, cabazitaxel]",IC50,"[1]; Homo sapiens, 72 h, cabazitaxel from 100 μM, alone or with G3 fixed 1 μM, FIG. 11",25.5 µM
Nc1ccn([C@@H]2O[C@H](CO)[C@@H](O)[C@@H]2O)c(=O)n1 [cytarabine],cells killed,HL-60 AML cells,55%
CC(=O)O[C@@]12CO[C@@H]1C[C@H](O)[C@@]1(C)C(=O)[C@H](O)C3=C(C)[C@@H](OC(=O)[C@H](O)[C@@H](NC(=O)OC(C)(C)C)c4ccccc4)C[C@@](O)([C@@H](OC(=O)c4ccccc4)[C@H]21)C3(C)C [docetaxel],cells killed,"[1]; pre-determined concentrations, alone or combined, FIG. 10",2%
"C=C1CC[C@H](O)C/C1=C/C=C1\CCC[C@]2(C)[C@@H]([C@H](C)CCCC(C)C)CC[C@@H]12 [vitamin D3 control, cholecalciferol]",vitamin D3 detected,[2],only trace amount
